Experimental data taken from patent EP4786462A1, “PYRIDONE COMPOUNDS AND PREPARATION METHOD THEREFOR, AND APPLICATION” (Shenzhen Salubris Pharmaceuticals Co., Ltd., priority 2023, dated 2025).

Tests used:
[1] = molecular target: T1, hERG channel (Homo sapiens, UniProt Q12809); assay: Effect on hERG current in hERG-HEK293 cells (automated patch-clamp); format: cell-based; details: 30 µM compound, peak tail current vs 0.3% DMSO
T1 construct: expressed in transfected cells

[2] = Pharmacokinetic experiment in rats (iv and PO administration); format: in vivo; details: male, rat, plasma, SD rats, 5 mg/kg; for AUC(0-t): read-out: AUC0-24h
From the text: Polyethylene glycol 400 (lot number R22040588, Shanghai Shaoyuan Reagent Co., Ltd.), DMSO (lot number 20200319, Guangdong Guanghua Sci-Tech Co., Ltd.), Sodium Chloride Physiological Solution (lot number 2011110727, Chenxin Pharmaceutical Co., Ltd.). LC-MS instrument (Thermo Fisher Ultimate 3000 UPLC, TSQ QUANTUM ULTRA triple quadrupole mass spectrometer, AB SCIEX 5500+ QTARP).
SD rats: Male, 180-250 g, purchased from Guangdong Vital River Laboratory Animal Technology Co., Ltd.
The test compound powder was accurately weighed and completely dissolved in DMSO. PEG-400 was added, vortexed and sonicated to mix, then sodium chloride physiological solution was added, vortexed and sonicated to mix to form a 0.5 mg/mL solution (DMSO:PEG-400:NS = 5:60:35, V/V/V). For oral gavage administration, the dose was 10 mL/kg; for intravenous administration, the dose was 2 mL/kg.
After intravenous or oral gavage administration to rats, venous blood (200 µL) was collected at 5 min (not collected for oral gavage administration), 15 min, 30 min, 1 h, 2 h, 5 h, 7 h, and 24 h into EDTA-K2-anticoagulated EP tubes. The samples were centrifuged at 10000 rpm for 2 min, and the plasma was collected and stored at -80 °C until analysis.
A certain amount of the test compound was accurately weighed and dissolved in DMSO to 2 mg/mL as a stock solution. An appropriate volume of the compound stock solution was accurately transferred and diluted with acetonitrile to prepare a series of standard solutions. 4 µL of each standard solution was accurately transferred, and 36 µL of blank plasma was added, vortexed to mix, to prepare plasma samples equivalent to plasma concentrations of 1, 3, 5, 10, 30, 100, 300, 1000, 3000 ng/mL. Each concentration was analyzed in duplicate to establish a standard curve. 30 µL of plasma was taken, and 200 µL of an acetonitrile solution containing internal standard propranolol (5 ng/mL) was added. After vortex mixing, the samples were centrifuged at 4000 rpm for 10 min, and the supernatant was taken for LC-MS analysis. The LC-MS detection conditions were as follows: Column: YMC-Triart C18, 50×2.1 mm, S-3µm, 12 nm.
Mobile phase A: water (0.1% formic acid), mobile phase B: acetonitrile, flow rate: 0.5 mL/min, gradient elution as shown in Table 2 below: Table 2
After detecting plasma concentrations by LC-MS, pharmacokinetic parameters in rats after administration were calculated using a non-compartmental model with WinNonlin 6.1 software. Table 3: Pharmacokinetic Parameters of the Compound of the Present Disclosure in Rats (iv and PO Administration)

T1 sequence (Q12809 whole entry): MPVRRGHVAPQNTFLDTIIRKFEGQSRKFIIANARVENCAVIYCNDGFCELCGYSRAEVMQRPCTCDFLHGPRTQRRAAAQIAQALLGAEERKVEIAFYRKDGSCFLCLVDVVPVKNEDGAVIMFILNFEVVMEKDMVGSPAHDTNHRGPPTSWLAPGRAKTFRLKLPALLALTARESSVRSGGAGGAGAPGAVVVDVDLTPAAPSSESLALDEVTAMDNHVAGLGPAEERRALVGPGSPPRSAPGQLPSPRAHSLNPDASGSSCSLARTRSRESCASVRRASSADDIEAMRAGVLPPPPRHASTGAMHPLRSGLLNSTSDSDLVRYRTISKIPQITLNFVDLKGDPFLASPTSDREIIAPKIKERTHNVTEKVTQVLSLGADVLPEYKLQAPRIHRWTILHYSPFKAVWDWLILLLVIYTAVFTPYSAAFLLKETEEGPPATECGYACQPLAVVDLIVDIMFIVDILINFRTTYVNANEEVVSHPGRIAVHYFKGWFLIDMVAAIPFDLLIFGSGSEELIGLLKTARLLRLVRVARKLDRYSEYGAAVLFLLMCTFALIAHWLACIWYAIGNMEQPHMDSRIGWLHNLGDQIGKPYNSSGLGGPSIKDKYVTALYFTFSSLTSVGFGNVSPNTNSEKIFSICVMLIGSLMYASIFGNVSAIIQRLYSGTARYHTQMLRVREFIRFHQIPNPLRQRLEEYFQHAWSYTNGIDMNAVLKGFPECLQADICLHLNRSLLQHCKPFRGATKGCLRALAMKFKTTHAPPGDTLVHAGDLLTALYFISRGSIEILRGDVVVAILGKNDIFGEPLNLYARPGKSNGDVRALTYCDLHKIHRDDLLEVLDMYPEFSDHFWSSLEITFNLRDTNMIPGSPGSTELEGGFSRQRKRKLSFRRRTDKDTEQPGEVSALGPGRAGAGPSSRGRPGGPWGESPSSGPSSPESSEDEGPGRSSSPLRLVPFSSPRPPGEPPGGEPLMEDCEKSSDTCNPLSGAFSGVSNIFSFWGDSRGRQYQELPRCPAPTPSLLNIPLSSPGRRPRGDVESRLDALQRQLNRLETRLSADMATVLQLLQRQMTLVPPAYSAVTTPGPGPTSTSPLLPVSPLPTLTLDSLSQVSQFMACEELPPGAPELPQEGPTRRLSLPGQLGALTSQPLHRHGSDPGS

| Compound | hERG Inhibition (%) [1] [%] | AUC(0-t) [2] [ng·h/mL] | further results |
| --- | --- | --- | --- |
| O=c1c(Cl)ccnn1-c1cnc(N[C@H]2CC[C@H](Nc3nc4ccccn4n3)C2)c(F)c1 [Example C67] | <50 | – | – |
| O=c1ccccn1-c1cnc(N[C@H]2CC[C@H](Nc3ncc(OC(F)F)cn3)C2)c(CO)c1 [Example A30] | – | – | 30 uM-hERG Inhibition [1]: 33.75 |
| O=c1ccccn1-c1cnc(N[C@H]2CC[C@H](Nc3nc4ccccn4n3)C2)c(F)c1 [Example C17, 6'-(((1S,3S)-3-([1,2,4]triazolo[1,5-a]pyridin-2-ylamino)cyclopentyl)amino)-5'-fluoro-2H-[1,3'-bipyridin]-2-one] | <50 | 39800 | – |
| Cc1ccc2nc(N[C@H]3CC[C@H](Nc4ccc(-n5ccccc5=O)cn4)C3)nn2c1 [Example C32] | <50 | – | – |
| O=c1ccccn1-c1ccc(N[C@H]2CC[C@H](Nc3nc4ccccn4n3)C2)nc1 [Example C7, 6'-(((1S,3S)-3-([1,2,4]triazolo[1,5-a]pyridin-2-ylamino)cyclopentyl)amino)-2H-[1,3'-bipyridin]-2-one] | <50 | – | – |
| O=c1ccccn1-c1cnc(N[C@H]2CC[C@H](Nc3nc4nccnc4s3)C2)c(F)c1 [Example C19] | <50 | – | – |
| O=c1cccnn1-c1cnc(N[C@H]2CC[C@H](Nc3nc4cccnc4[nH]3)C2)c(F)c1 [Example C69] | <50 | – | – |
| O=c1cccnn1-c1ccc(N[C@H]2CC[C@H](Nc3nc4cccnc4[nH]3)C2)nc1 [Example C66] | <50 | – | – |
| O=c1ccc2cccnc2n1-c1ccc(N[C@H]2CC[C@H](Nc3nc4cccnc4s3)C2)nc1 [Example C84] | <50 | – | – |
| COc1ccn2nc(N[C@H]3CC[C@H](Nc4ccc(-n5ccccc5=O)cn4)C3)nc2c1 [Example C8, 6'-(((1S,3S)-3-((7-methoxy-[1,2,4]triazolo[1,5-a]pyridin-2-yl)amino)cyclopentyl)amino)-2H-[1,3 '-bipyridin]-2-one] | <50 | – | – |
| O=c1ccccn1-c1ccc(N[C@H]2CC[C@H](Nc3nc4ncccn4n3)C2)nc1 [Example C30] | <50 | – | – |
| O=c1ccccn1-c1cnc(N[C@H]2CC[C@H](Nc3nc4ccccn4n3)C2)cn1 [Example C9, 1-(5-(((1S,3S)-3-([1,2,4]triazolo[1,5-a]pyridin-2-ylamino)cyclopentyl)amino)pyrazin-2-yl)pyridi n-2(1H)-one] | – | 40300 | – |
| O=c1c(Cl)cccn1-c1cnc(N[C@H]2CC[C@H](Nc3nc4ccccn4n3)C2)c(F)c1 [Example C36] | <50 | – | – |
| O=c1ccccn1-c1cnc(N[C@H]2CC[C@H](Nc3nc4cccnc4[nH]3)C2)c(F)c1 [Example C56] | <50 | – | – |
| O=c1c(Cl)cccn1-c1cnc(N[C@H]2CC[C@H](Nc3nc4cccnc4[nH]3)C2)c(F)c1 [Example C61] | <50 | – | – |
| COc1cc(-n2ccccc2=O)cnc1N[C@H]1CC[C@H](Nc2ncc(OC(F)F)cn2)C1 [Example A27, 6'-(((1S,3S)-3-((5-(difluoromethoxy)pyrimidin-2-yl)amino)cyclopentyl)amino)-5'-methoxy-2H-[1,3'-bipyridin]-2-one] | – | 32000 | half-life [2]: 3.89 h; 30 uM-hERG Inhibition [1]: 40.72 |
| O=c1cccnn1-c1cnc(N[C@H]2CC[C@H](Nc3nc4ccccn4n3)C2)c(F)c1 [Example C47, 2-(6-(((1S,3S)-3-([1,2,4]triazolo[1,5-a]pyridin-2-ylamino)cyclopentyl)amino)-5-fluoropyridin-3-yl)pyridazin-3(2H)-one] | <50 | 53000 | – |
| O=c1ccccn1-c1cnc(N[C@H]2CC[C@H](Nc3nc4cccnc4s3)C2)c(F)c1 [Example C22] | <50 | 37700 | – |
| O=c1c(C2CC2)cccn1-c1ccc(N[C@H]2CC[C@H](Nc3nc4cccnc4[nH]3)C2)nc1 [Example C58] | <50 | – | – |

| Compound | hERG Inhibition (%) [1] [%] | AUC(0-t) [2] [ng·h/mL] | further results |
| --- | --- | --- | --- |
| O=c1ccccn1-c1ccc(N[C@H]2CC[C@H](Nc3nc4cccnc4s3)C2)nc1 [Example C15] | <50 | – | – |
| O=c1c(Cl)cccn1-c1ccc(N[C@H]2CC[C@H](Nc3ncc(OC(F)F)cn3)C2)nc1 [Example A9, 3-chloro-6'-(((1S,3S)-3-((5-(difluoromethoxy)pyrimidin-2-yl)amino)cyclopentyl)amino)-2H-[1,3 '-bipyridin]-2-one] | – | 29400 | – |
| O=C(O)c1cccn(-c2ccc(N[C@H]3CC[C@H](Nc4ncc(OC(F)F)cn4)C3)nc2)c1=O [Example A22, 6'-(((1S,3S)-3-((5-(difluoromethoxy)pyrimidin-2-yl)amino)cyclopentyl)amino)-2-oxo-2H-[1,3'-bipyridine]-3-carboxylic acid] | – | – | 30 uM-hERG Inhibition [1]: 19.56 |
| O=c1ccccn1-c1cnc(N[C@H]2CC[C@H](Nc3nc4cccnc4o3)C2)c(F)c1 [Example C53] | <50 | – | – |
| CC(O)c1cccn(-c2ccc(N[C@H]3CC[C@H](Nc4ncc(OC(F)F)cn4)C3)nc2)c1=O (stereo partly drawn) [Example A35, 6'-(((1S,3S)-3-((5-(difluoromethoxy)pyrimidin-2-yl)amino)cyclopentyl)amino)-3-(1-hydroxyethyl)-2H-[1,3'-bipyridin]-2-one] | – | 60100 | half-life [2]: 14.9 h; 30 uM-hERG Inhibition [1]: 33.81 |
| O=c1ccccn1-c1cnc(N[C@H]2CC[C@H](Nc3ncc(OC(F)F)cn3)C2)c(F)c1 [Example A17, 6'-(((1S,3S)-3-((5-(difluoromethoxy)pyrimidin-2-yl)amino)cyclopentyl)amino)-5'-fluoro-2H-[1,3 '-bipyridin]-2-one] | – | 43800 | half-life [2]: 2.97 h |
| O=c1cccnn1-c1cnc(N[C@H]2CC[C@H](Nc3nc4cccnc4o3)C2)c(F)c1 [Example C48] | <50 | – | – |
| O=c1c(Cl)ccnn1-c1ccc(N[C@H]2CC[C@H](Nc3nc4ccccn4n3)C2)nc1 [Example C65] | <50 | – | – |
| O=c1c(F)cccn1-c1ccc(N[C@H]2CC[C@H](Nc3ncc(OC(F)F)cn3)C2)nc1 [Example A14, 6'-(((1S,3S)-3-((5-(difluoromethoxy)pyrimidin-2-yl)amino)cyclopentyl)amino)-3-fluoro-2H-[1,3' -bipyridin]-2-one] | – | 31400 | half-life [2]: 4.42 h |
| Cn1c(=O)n(-c2ccc(N[C@H]3CC[C@H](Nc4nc5ccccn5n4)C3)nc2)c2cc(C#N)ccc21 [Example C64] | <50 | – | – |
| O=c1cccnn1-c1ccc(N[C@H]2CC[C@H](Nc3nc4cccnc4s3)C2)nc1 [Example C35] | <50 | 39700 | – |
| O=c1cccnn1-c1cnc(N[C@H]2CC[C@H](Nc3nc4cccnc4s3)C2)c(F)c1 [Example C34] | <50 | 41400 | – |
| O=c1cccnn1-c1ccc(N[C@H]2CC[C@H](Nc3nc4ccccn4n3)C2)nc1 [Example C43] | <50 | – | – |
| N#Cc1cccn(-c2ccc(N[C@H]3CC[C@H](Nc4ncc(OC(F)F)cn4)C3)nc2)c1=O [Example A13, 6'-(((1S,3S)-3-((5-(difluoromethoxy)pyrimidin-2-yl)amino)cyclopentyl)amino)-2-oxo-2H-[1,3'-bipyridine]-3-carbonitrile] | – | 42500 | half-life [2]: 6.02 h |
| O=c1cccnn1-c1cnc(N[C@H]2CC[C@H](Nc3ncc(OC(F)F)cn3)C2)c(F)c1 [Example A28, 2-(6-(((1S,3S)-3-((5-(difluoromethoxy)pyrimidin-2-yl)amino)cyclopentyl)amino)-5-fluoropyridin-3-yl)pyridazin-3(2H)-one] | – | 70100 | – |
| O=c1ccc2cccnc2n1-c1ccc(N[C@H]2CC[C@H](Nc3nc4ccccn4n3)C2)nc1 [Example C71] | <50 | – | – |
| COc1ccc2nc(N[C@H]3CC[C@H](Nc4ccc(-n5ccccc5=O)cn4)C3)nn2c1 [Example C21] | <50 | – | – |
| C#Cc1ccc2nc(N[C@H]3CC[C@H](Nc4ccc(-n5ccccc5=O)cn4)C3)nn2c1 [Example C26] | <50 | – | – |
